In patent US5710130A, “Antithrombotic agents” (Eli Lilly and Company, priority 1995, dated 1998):
Where a name gives a salt, the structure may show the parent alone.

Assays:
Human Thrombin = Human Thrombin (Homo sapiens, UniProt P00734); experiment: Inhibition of thrombin amidase activity (Kass), chromogenic substrate; assay type: biochemical; conditions: mean Kass over a range of concentrations; substrate N-benzoyl-Phe-Val-Arg-p-nitroanilide
human plasma [1] = experiment: Human plasma anticoagulation, thrombin time (TT); assay type: biochemical; conditions: concentration required to double thrombin time, linear extrapolation
Procedure: (§1) Dog plasma and rat plasma is obtained from conscious mixed-breed hounds (either sex, Hazelton-LRE, Kalamazoo, Mich., U.S.A.) or from anesthetized male Sprague-Dawley rats (Harlan Sprague-Dawley, Inc., Indianapolis, Ind., U.S.A.) by venipuncture into 3.8 percent citrate. Fibrinogen is prepared from in-date ACD human blood as the fraction I-2 according to previous procedures and specifications. […] Human fibrinogen is also purchased as 98 percent pure/plasmin free from American Diagnostica, Greenwich, Conn. Coagulation reagents ACTIN, Thromboplastin, and Human plasma are from Baxter Healthcare Corp., Dade Division, Miami, Fla. Bovine thrombin from Parke-Davis ([…], Mich.) is used for coagulation assays in plasma.
(§2) Coagulation assay procedures are as previously described. […] A CoAScreener coagulation instrument (American LABor, Inc.) is used for all coagulation assay measurements. The prothrombin time (PT) is measured by adding 0.05 mL saline and 0.05 mL Thromboplastin-C reagent to 0.05 mL test plasma. The activated partial thromboplastin time (APTT) is measured by incubation of 0.05 mL test plasma with 0.05 mL Actin reagent for 120 seconds followed by 0.05 mL CaCl2 (0.02M). The thrombin time (TT) is measured by adding 0.05 mL saline and 0.05 mL thrombin (10 NIH units/mL) to 0.05 mL test plasma. The compounds of Formula I are added to human or animal plasma over a wide range of concentrations to determine prolongation effects on the APTT, PT, and TT assays. Linear extrapolations are performed to estimate the concentrations required to double the clotting time for each assay.

human plasma [2] = experiment: Human plasma anticoagulation, activated partial thromboplastin time (APTT); assay type: biochemical; conditions: concentration required to double APTT, linear extrapolation
Procedure: as §1, §2

human plasma [3] = experiment: Human plasma anticoagulation, prothrombin time (PT); assay type: biochemical; conditions: concentration required to double PT, linear extrapolation
Procedure: as §1, §2

[4] = Index of bioavailability (% Relative Activity) from plasma TT time course, oral vs i.v.; assay type: in vivo; conditions: p.o. dose per legend (20, 60 or 50 mg/kg)
Procedure: Parke Davis) at 37° C. […] Assays are done in duplicate and averaged. […] Each sample population represented alternating sequential time points.

| Molecule | Kass Human Thrombin (Human Thrombin) | Human Plasma Anticoagulation 2x Clotting time TT (human plasma [1]) [ng/mL] | Human Plasma Anticoagulation 2x Clotting time APTT (human plasma [2]) | Human Plasma Anticoagulation 2x Clotting time PT (human plasma [3]) | % oral/i.v. activity (Rat), screening not completed [4] |
| --- | --- | --- | --- | --- | --- |
| Nc1ccc(CNC(=O)[C@@H]2CCCN2C(=O)[C@@H](CC2CCCCC2)NCC(=O)O)cc1F [Example 77, HO2 CCH2 -D-Cha-pro-4-NHCH2-2-F-aniline.HCl] | 11 × 10^6 (L/mole) | 53 | 1,600 ng/mL | 890 ng/mL |  |
| N=C(N)N1CCC(CCNC(=O)[C@@H]2CCCN2C(=O)[C@@H](CC2CCCCC2)NCC(=O)O)CC1 [Example 57, HO2 CCH2 -D-Cha-Pro-4-NHCH2 CH2 -1-amidinopiperidine.HCl] | 39 × 10^6 (L/mole) | 14 | 360 ng/mL | 340 ng/mL |  |
| CCS(=O)(=O)N[C@H](CC1CCCCC1)C(=O)N1CCC[C@H]1C(=O)NCc1ccc(C(=N)N)cc1 [Example 80, N-(ethylsulfonyl)-D-cyclohexylalanyl-N-[[4-(aminoiminomethyl)phenyl]methyl]-L-prolinamide hydrochloride] | 1,700 × 10^6 (L/mole) | 4 | 40 ng/mL | 130 ng/mL |  |
| HOOCCH2 -D-Phe-Pro(4-cis-isoamyl)-p-NHCH2 C6 H4 C(NH)NH2.HCl [Example 50] | 40 × 10^6 (L/mole) | 35 | 460 ng/mL | 420 ng/mL |  |
| Cl.Nc1ccc(CNC(=O)[C@@H]2CCCN2C(=O)[C@@H](CC2CCCCC2)NCC(=O)O)cn1 [Example 74, HO2 CCH2 -D-Cha-Pro-5-NHCH2 -2-aminopyridine.HCl] | 29 × 10^6 (L/mole) | 20 | 420 ng/mL | 350 ng/mL |  |
| Cl.O=C(O)CNC(CC1CCCCC1)C(=O)N1CCCC1C(=O)NCCC1CCNCC1 [Example 54, HO2 CCH2 -D-Cha-Pro-4-NHCH2 CH2 -piperidine.HCl] | 2.8 × 10^6 (L/mole) | 140 | 3,300 ng/mL | 2,200 ng/mL |  |
| N=C(N)c1ccc(CNC(=O)[C@@H]2CCCN2C(=O)[C@H](NCC(=O)O)C2CCCCC2)cc1 [Example 86, N-(carboxymethyl)-D-cyclohexylglycyl-N-[[4-(aminoiminomethyl)phenyl]methyl]-L-prolinamide hydrochloride] | 200 × 10^6 (L/mole) | 4 | 81 ng/mL | 180 ng/mL |  |
| Cl.N=C(N)c1cccc(CNC(=O)[C@@H]2CCCN2C(=O)[C@H](N)Cc2ccccc2)c1 [Example 16, D-Phe-Pro-m-NHCH2 C6 H4 C(NH)NH2.0.75HCl] | 0.97 × 10^6 (L/mole) | 650 | 8,600 ng/mL | 8,500 ng/mL |  |
| N=C(N)c1ccc(CNC(=O)[C@@H]2CCCN2C(=O)[C@H]2C[C@H]3CCCC[C@H]3CN2)cc1 [Example 19, D-3-Piq-Pro-p-NHCH2 C6 H4 C(NH)NH2.3HCl] | 11 × 10^6 (L/mole) | 58 | 300 ng/mL | 540 ng/mL |  |
| CCS(=O)(=O)N[C@H](CC1CCCCC1)C(=O)N1CCC[C@H]1C(=O)NCc1ccc(N)nc1.Cl [Example 84, EtSO2 -D-Cha-Pro-5-NHCH2 -2-aminopyridine.HCl] | 2.9 × 10^6 (L/mole) | 110 | 1,500 ng/mL | 1,900 ng/mL |  |
| Cl.N=C(N)c1ccc(CNC(=O)CN(CCc2ccccc2)C(=O)CNCC(=O)O)cc1 [Example 89, HOOCCH2 -Gly-N-C6 H5 CH2 CH2 Gly-p-NHCH2 C6 H4 C(NH)NH2.HCl] | 0.14 × 10^6 (L/mole) | 570 | 51,000 ng/mL | 37,000 ng/mL |  |
| Cl.Nc1cc(CNC(=O)[C@@H]2CCCN2C(=O)[C@@H](CC2CCCCC2)NCC(=O)O)ccn1 [Example 73, HO2 CCH2 -D-Cha-Pro-4-NHCH2 -2-aminopyridine.HCl] | 28 × 10^6 (L/mole) | 21 | 340 ng/mL | 330 ng/mL |  |
| Cl.Cl.N=C(N)c1ccc(CCNC(=O)[C@@H]2CCCN2C(=O)[C@@H]2NCC[C@@H]3CCCC[C@@H]32)cc1 [Example 28, D-1-Piq-pro-p-NHCH2 CH2 -C6 H4 C(=NH)NH2.2HCl] | 0.95 × 10^6 (L/mole) |  | 8,100 ng/mL | 8,300 ng/mL |  |
| CCS(=O)(=O)N[C@H](Cc1ccccc1)C(=O)N1CCC[C@H]1C(=O)NCCc1cccc(C(=N)N)c1.Cl [Example 27, EtSO2 -D-Phe-Pro-m-NHCH2 CH2 -C6 H4 C(=NH)NH2.HCl] | 0.29 × 10^6 (L/mole) |  |  | 27,000 ng/mL |  |
| Cl.O=C(O)CN[C@H](CC1CCCCC1)C(=O)N1CCC[C@H]1C(=O)NCCC1=CCNCC1 [Example 59, HO2 CCH2 -D-Cha-Pro-4-NHCH2 CH2 -3,4-dehydro-piperidine.HCl] | 1.10 × 10^6 (L/mole) | 420 | 5,500 ng/mL | 7,000 ng/mL |  |
| CCS(=O)(=O)N[C@H](CC1CCCCC1)C(=O)N1CCC[C@H]1C(=O)NCc1ccc(N)cc1F.Cl [Example 82, EtSO2 -D-Cha-Pro-4-NHCH2 -3-F-C6 H3 NH2.HCl] | 5.0 × 10^6 (L/mole) | 130 | 3,800 ng/mL | 3,000 ng/mL |  |
| NCc1ccc(CNC(=O)[C@@H]2CCCN2C(=O)[C@@H](CC2CCCCC2)NCC(=O)O)cc1 [Example 78, HO2 CCH2 -D-Cha-Pro-4-NHCH2 C6 H4 CH2 NH2.HCl] | 11 × 10^6 (L/mole) | 46 | 430 ng/mL | 760 ng/mL |  |
| Cl.Nc1cc(CCNC(=O)[C@@H]2CCCN2C(=O)[C@@H](CC2CCCCC2)NCC(=O)O)ccn1 [Example 76, HO2 CCH2 -D-Cha-Pro-4-NHCH2 CH2 -2-aminopyridine.HCl] | 12 × 10^6 (L/mole) | 29 | 490 ng/mL | 560 ng/mL |  |
| Cl.Cl.N=C(N)c1cccc(CCNC(=O)[C@@H]2CCCN2C(=O)[C@@H]2NCC[C@@H]3CCCC[C@@H]32)c1 [Example 29, D-1-Piq-Pro-m-NHCH2 CH2 -C6 H4 C(=NH )NH2.2HCl] | 0.76 × 10^6 (L/mole) |  | 9,800 ng/mL | 15,000 ng/mL |  |
| CCS(=O)(=O)N[C@H](CC1CCCCC1)C(=O)N1CCC[C@H]1C(=O)NCc1ccnc(N)c1.Cl [Example 83, EtSO2 -D-Cha-Pro-4-NHCH2 -2-aminopyridine.HCl] | 2.4 × 10^6 (L/mole) | 91 | 1,000 ng/mL | 1,300 ng/mL |  |
| N=C(N)c1ccc(CNC(=O)[C@@H]2C[C@@H]3CCCC[C@@H]3N2C(=O)[C@@H](CC2CCCCC2)NCC(=O)O)cc1 (relative stereo) [Example 49, (S-cis)-N-[[4-(aminoiminomethyl)phenyl]methyl]-1-[N-(carboxymethyl)-D-cyclohexylalanyl-1H-indole-2-carboxamide hydrochloride] |  | 5 |  |  | NC^2 |
| N=C(N)C1CCC(CNC(=O)[C@@H]2CCCN2C(=O)[C@@H](CC2CCCCC2)NCC(=O)O)NC1 (stereo partly drawn) [Example 67, HO2 CCH2 -D-Cha-Pro-2-NHCH2 -5-amidinopiperidine.HCl] | 11 × 10^6 (L/mole) | 34 | 1,800 ng/mL | 1,300 ng/mL |  |
